Patent publication US9896512B2, “Antitumor peptide derived from a complementarity determining region of a humanized monoclonal antibody to NAP12B transporter” (Recepta Biopharma S.A., priority 2010, dated 2018)
Positions of bridges follow the written chain, without caps; N, C: chain ends. Non-standard residues stand in square brackets, D forms with d. No end group written: not given here. dCit = NC(=O)NCCC[C@@H](N)C(=O)O

Tests used:
[1] = tested on: melanoma B16F10-Nex2 cells; assay: Alanine scanning series cell adhesion assay (MTT after trypsin-EDTA); assay type: cell-based, murine; details: 1 mM peptide, 24 hours
Description: The peptide RB10 (SEQ ID NO: 9) was engineered to replace each amino acid by alanine using Ala-scan methodology, and thus help evaluate the role of each amino acid on biological effect, specifically on the hyper-adherence observed with 1 mM peptide.
For this purpose, viable melanoma B16F10-Nex2 cells (1×10^4)/well were distributed on a 96-well culture plate and incubated for 4 hours. Fresh media containing 1 mM of the alanine-scanning series for RB10 was added and incubated for 24 hours. Treated cells were detached with 30 μl/well of trypsin-EDTA for five minutes at 37° C. and gently washed with PBS. Cells were incubated for 4 hours with 0.5 mg/mL of MTT [3-(4,5-Dimethylthiazol-2-yl)-2,5-diphenyltetrazolium bromide] in fresh media and the formazan crystals were solubilized adding 1 volume of a 10% SDS solution overnight. Intensity was measured using a plate reader at 570 nm. […] The 100% value for each peptide represented the treated cells that had not been trypsinized.

[2] = tested on: B16F10-Nex2 melanoma cells; assay: Cell migration, wound healing assay; assay type: cell-based, murine; details: peptide 500 μM, 24 hours after wounding
Description: For the migration studies, 5×10^5 or 10^6 cells were distributed on 6-well plates and let them to adhere for 2 hours at 37° C./5% CO2. The culture medium was changed and the peptide was added at 500 μM overnight. The cell monolayer was “wounded” with a P1000 tip and incubated for 24 hours. Images of untreated cells (control) and peptide treated cells were captured with a JENOPTIK camera. Cell numbers (nuclei) were determined using the Pixcavator software version 5.0.
Viable B16F10-Nex2 cells (5×105)/well were distributed on a 6-well culture plate and incubated overnight at 37° C. in a humidified chamber with 5% CO2. A P1000 tip was used for wounding the cell monolayer and the image was immediately captured (0 hour) using a camera (Jenoptik) with the software Progres 2.8. After 24 hours a new image of the same field was obtained and recorded (24 hours).
Viable B16F10-Nex2 cells (3×10^5)/well were distributed in a 12-well culture plate and incubated for 4 hours at 37° C. in a humidified chamber with 5% CO2. Fresh medium containing RB10 (SEQ ID NO: 9) at different concentrations was added to the wells and incubated again for 4 hours. The monolayer wounding was performed as described above in Example 12, and images obtained accordingly. After 24 hours a new image in the same field was obtained and recorded (24 hours). […] Magnification ×100.

[3] = tested on: B16F10-Nex2 melanoma cells; assay: In vivo protection against lung colonization (metastatic melanoma model); set-up: species or system C57B1/6 mice; details: 250 μg i.p. on days 1, 3, 5, 7, 9, 11; lungs after 22 days
Description: (§1) Details of the in vitro tumor cell growth, cytotoxicity tests, determination of viable cells and in vivo protection experiments with B16F10 cells in a mouse metastatic model are described in Polonelli et al. (PLoS One. 3(6):e2371, 2008) and Dobroff et al. (Translat. Onc., 3: 204-217, 2010).
Peptides RB9 and RB10 along with the apoptotic peptide A4H3, a true microantibody of cytotoxic anti-melanoma mAb (A4) (Dobroff et al., Translat. Onc., 3: 204-217, 2010), were tested for their protective effects against lung colonization by B16F10-Nex2 melanoma cells (2×105) injected intravenously in C57B1/6 mice (6 animals/group). Peptides were intraperitoneally administered (250 μg i.p.) on days 1, 3, 5, 7, 9, 11 after tumor cell challenge. Lungs of peptide-treated animals are shown in FIG. 5 after 22 days of tumor challenge. As noticed, peptide treatment was interrupted 10 days before animal sacrifice.
In vivo protection by peptides RB9 and RB10 (and A4H3 control) against lung colonization by B16F10-Nex2 melanoma cells (2×105) injected intravenously in C57B1/6 mice (6 animals/group) is shown in FIG. 6. The other 5 CDRs of RebMab200 (SEQ ID NOs: 7, 10, 11, 12, 13) were unprotective in vivo. Peptides were administered in the same way as described above, and the number of lung nodules was determined.

tumor cells = assay: Antitumor activity of RebMab 200 CDR peptides; assay type: cell-based
From the text: as §1
Amidated RebMab 200 CDR H2 (SEQ ID NO: 7) shares up to sixteen (16) identical amino acids with similar H2 fragments from several murine antibodies of various specificities.

| Substance | trypsin/EDTA-resistant cell adherence [1] | inhibition of cell migration (words) [2] | protection against lung colonization (lung nodules) [3] | antitumor activity (tumor cells) |
| --- | --- | --- | --- | --- |
| AARGETARATFAYWGQG-NH2 [RB10 A1] | normally detached | non-inhibition |  |  |
| C(dA)RGETA(dCit)AT(dF)AYWGQ(dA)C-NH2 (C[dA]RGETA[dCit]AT[dF]AYWGQ[dA]C-NH2; disulfide 1-18; N-terminus assumed; SMILES C[C@@H]1NC(=O)[C@H]([C@@H](C)O)NC(=O)[C@H](CCC(=O)O)NC(=O)CNC(=O)[C@H](CCCNC(=N)N)NC(=O)[C@@H](C)NC(=O)[C@@H](N)CSSC[C@@H](C(N)=O)NC(=O)[C@@H](C)NC(=O)[C@H](CCC(N)=O)NC(=O)CNC(=O)[C@H](Cc2c[nH]c3ccccc23)NC(=O)[C@H](Cc2ccc(O)cc2)NC(=O)[C@H](C)NC(=O)[C@@H](Cc2ccccc2)NC(=O)[C@H]([C@@H](C)O)NC(=O)[C@H](C)NC(=O)[C@@H](CCCNC(N)=O)NC1=O) [RB9 M2] |  | partial inhibition |  |  |
| C(dA)RGETA(dCit)ATFAYWGQ(dA)-NH2 (C[dA]RGETA[dCit]ATFAYWGQ[dA]-NH2; N-terminus assumed; SMILES C[C@H](NC(=O)[C@H](Cc1ccccc1)NC(=O)[C@@H](NC(=O)[C@H](C)NC(=O)[C@@H](CCCNC(N)=O)NC(=O)[C@H](C)NC(=O)[C@@H](NC(=O)[C@H](CCC(=O)O)NC(=O)CNC(=O)[C@H](CCCNC(=N)N)NC(=O)[C@@H](C)NC(=O)[C@@H](N)CS)[C@@H](C)O)[C@@H](C)O)C(=O)N[C@@H](Cc1ccc(O)cc1)C(=O)N[C@@H](Cc1c[nH]c2ccccc12)C(=O)NCC(=O)N[C@@H](CCC(N)=O)C(=O)N[C@H](C)C(N)=O) [RB10 M4] |  | partial inhibition |  |  |
| C(dA)RGETA(dCit)ATFAYWGQ(dA)C-NH2 (C[dA]RGETA[dCit]ATFAYWGQ[dA]C-NH2; disulfide 1-18; N-terminus assumed; SMILES C[C@@H]1NC(=O)[C@H](Cc2ccccc2)NC(=O)[C@H]([C@@H](C)O)NC(=O)[C@H](C)NC(=O)[C@@H](CCCNC(N)=O)NC(=O)[C@H](C)NC(=O)[C@H]([C@@H](C)O)NC(=O)[C@H](CCC(=O)O)NC(=O)CNC(=O)[C@H](CCCNC(=N)N)NC(=O)[C@@H](C)NC(=O)[C@@H](N)CSSC[C@@H](C(N)=O)NC(=O)[C@@H](C)NC(=O)[C@H](CCC(N)=O)NC(=O)CNC(=O)[C@H](Cc2c[nH]c3ccccc23)NC(=O)[C@H](Cc2ccc(O)cc2)NC1=O) [RB9 M1] |  | partial inhibition |  |  |
| C(dA)RGETARATFAYC-NH2 (C[dA]RGETARATFAYC-NH2; disulfide 1-14; N-terminus assumed; SMILES C[C@@H]1NC(=O)[C@H](CCCNC(=N)N)NC(=O)[C@H](C)NC(=O)[C@H]([C@@H](C)O)NC(=O)[C@H](CCC(=O)O)NC(=O)CNC(=O)[C@H](CCCNC(=N)N)NC(=O)[C@@H](C)NC(=O)[C@@H](N)CSSC[C@@H](C(N)=O)NC(=O)[C@H](Cc2ccc(O)cc2)NC(=O)[C@H](C)NC(=O)[C@H](Cc2ccccc2)NC(=O)[C@H]([C@@H](C)O)NC1=O) [RB9 M3] |  | partial inhibition |  |  |
| C(dA)RGETARATFAYWGQGC-NH2 [RB9 M5] |  | partial inhibition |  |  |
| CAAGETARATFAYWGQG-NH2 [RB10 A3] | normally detached | partial inhibition |  |  |
| CARAETARATFAYWGQG-NH2 [RB10 A4] | high trypsin/EDTA-resistant cell adherence | partial inhibition |  |  |
| CARGATARATFAYWGQG-NH2 [RB10 A5] | normally detached |  |  |  |
| CARGEAARATFAYWGQG-NH2 [RB10 A6] | high trypsin/EDTA-resistant cell adherence | partial inhibition |  |  |
| CARGETA(dCit)AT(dF)AYWGQ(dA)-NH2 (CARGETA[dCit]AT[dF]AYWGQ[dA]-NH2; N-terminus assumed; SMILES C[C@H](NC(=O)[C@@H](NC(=O)[C@H](CCC(=O)O)NC(=O)CNC(=O)[C@H](CCCNC(=N)N)NC(=O)[C@H](C)NC(=O)[C@@H](N)CS)[C@@H](C)O)C(=O)N[C@H](CCCNC(N)=O)C(=O)N[C@@H](C)C(=O)N[C@H](C(=O)N[C@H](Cc1ccccc1)C(=O)N[C@@H](C)C(=O)N[C@@H](Cc1ccc(O)cc1)C(=O)N[C@@H](Cc1c[nH]c2ccccc12)C(=O)NCC(=O)N[C@@H](CCC(N)=O)C(=O)N[C@H](C)C(N)=O)[C@@H](C)O) [RB10 M1] |  | partial inhibition |  |  |
| CARGETA(dCit)ATFAYWGQGC-NH2 [RB9 M4] |  | partial inhibition |  |  |
| CARGETAAATFAYWGQG-NH2 [RB10 A8] | normally detached | partial inhibition |  |  |
| CFIARAGWYATEARGGQC-NH2 [RB9 Sc3] |  | partial inhibition |  |  |
| CGTFEYRAQAGWAGRTA-NH2 [RB10 Scramble] |  | partial inhibition |  |  |
| CGTFEYRAQAGWAGRTAC-NH2 (disulfide 1-18; N-terminus assumed; SMILES C[C@@H]1NC(=O)[C@H](Cc2c[nH]c3ccccc23)NC(=O)CNC(=O)[C@H](C)NC(=O)[C@H](CCC(N)=O)NC(=O)[C@H](C)NC(=O)[C@H](CCCNC(=N)N)NC(=O)[C@H](Cc2ccc(O)cc2)NC(=O)[C@H](CCC(=O)O)NC(=O)[C@H](Cc2ccccc2)NC(=O)[C@H]([C@@H](C)O)NC(=O)CNC(=O)[C@@H](N)CSSC[C@@H](C(N)=O)NC(=O)[C@H](C)NC(=O)[C@H]([C@@H](C)O)NC(=O)[C@H](CCCNC(=N)N)NC(=O)CNC1=O) [RB9 Scramble] |  | partial inhibition |  |  |
| GYTFTGYNIH-NH2 [RB11] |  |  | unprotective | no antitumor activity |
| QQYSKLPLT-NH2 [RB14] |  |  | unprotective | no antitumor activity |
| SASQDIGNFLN-NH2 [RB12] |  |  | unprotective | no antitumor activity |
| YTSSLYS-NH2 [RB13] |  |  | unprotective | no antitumor activity |
| YWCRAAFTTEAGRACQGG-NH2 (disulfide 3-15; N-terminus assumed; SMILES C[C@@H]1NC(=O)[C@H](C)NC(=O)[C@H](CCCNC(=N)N)NC(=O)[C@@H](NC(=O)[C@H](Cc2c[nH]c3ccccc23)NC(=O)[C@@H](N)Cc2ccc(O)cc2)CSSC[C@@H](C(=O)N[C@@H](CCC(N)=O)C(=O)NCC(=O)NCC(N)=O)NC(=O)[C@H](C)NC(=O)[C@H](CCCNC(=N)N)NC(=O)CNC(=O)[C@H](C)NC(=O)[C@H](CCC(=O)O)NC(=O)[C@H]([C@@H](C)O)NC(=O)[C@H]([C@@H](C)O)NC(=O)[C@H](Cc2ccccc2)NC1=O) [RB9 Sc2] |  | partial inhibition |  |  |
